According to ChEMBL document CHEMBL1781971, “Discovery of 5-(arenethynyl) hetero-monocyclic derivatives as potent inhibitors of BCR-ABL including the T315I gatekeeper mutant” (Bioorg Med Chem Lett, 2011):

What was measured:
cells [1] = settings: Mus musculus, BaF3
Description: Antiproliferative activity against BCR-ABL-negative parental mouse BA/F3 cells

cells [2] = settings: Mus musculus, BaF3; remark: listed apart in the source
[3] = target: Tyrosine-protein kinase ABL1 (Homo sapiens, UniProt P00519, T315I)
[4] = target: Tyrosine-protein kinase ABL1 (Homo sapiens, UniProt P00519)
cells [5] = settings: Mus musculus, BaF3; remark: listed apart in the source
Description: Antiproliferative activity against mouse BA/F3 cells expressing wild type BCR-ABL

[6] = Volume of distribution in rat at 5 mg/kg, iv; format: ADME, organism-based; set-up: dose 5 mg/kg, route intravenous; settings: in vivo
[7] = Oral bioavailability in rat at 15 mg/kg; format: ADME, organism-based; settings: in vivo
Rattus norvegicus [8] = experiment: AUC in rat at 5 mg/kg, iv; format: ADME, organism-based, Plasma; set-up: dose 5 mg/kg, route intravenous; settings: in vivo
[9] = Half life in rat at 15 mg/kg, po; format: ADME, organism-based; set-up: dose 15 mg/kg, route oral; settings: in vivo
[10] = Clearance in rat at 5 mg/kg, iv; format: ADME, organism-based; set-up: dose 5 mg/kg, route intravenous; settings: in vivo
[11] = Cmax in rat at 15 mg/kg, po; format: ADME, organism-based; set-up: dose 15 mg/kg, route oral; settings: in vivo
[12] = Plasma concentration in mouse after 6 hrs at 30 mg/kg, po; format: ADME, organism-based; set-up: dose 30 mg/kg, route oral
Rattus norvegicus [13] = experiment: AUC in rat at 15 mg/kg, po; format: ADME, organism-based, Plasma; set-up: dose 15 mg/kg, route oral; settings: in vivo
[14] = Cmax in rat at 5 mg/kg, iv; format: ADME, organism-based; set-up: dose 5 mg/kg, route intravenous; settings: in vivo
[15] = Half life in rat at 5 mg/kg, iv; format: ADME, organism-based; set-up: dose 5 mg/kg, route intravenous; settings: in vivo
[16] = target: Tyrosine-protein kinase JAK1 (Homo sapiens, UniProt P23458); experiment: Inhibition of human JAK1 using poly[Glu:Tyr] by Hotspot assay
[17] = target: Fibroblast growth factor receptor 2 (Homo sapiens, UniProt P21802); experiment: Inhibition of human FGFR2 using poly[Glu:Tyr] peptide substrate by Hotspot assay
[18] = target: Macrophage colony-stimulating factor 1 receptor (Homo sapiens, UniProt P07333); experiment: Inhibition of human FMS using poly[Glu:Tyr] by Hotspot assay
[19] = target: Serine/threonine-protein kinase B-raf (Homo sapiens, UniProt P15056, V600E); experiment: Inhibition of human BRAF V599E mutant using MEK1 (K97R), ATP substrate by Hotspot assay
[20] = Antitumor activity against mouse BA/F3 cells expressing ABL T315I mutant xenografted in mouse assessed as increase in overall survival at 30 mg/kg, po QD for 19 days relative to control; format: functional, BaF3
Angiopoietin-1 receptor = Angiopoietin-1 receptor (Homo sapiens, UniProt Q02763); experiment: Inhibition of human Tie2/TEK using poly[Glu:Tyr] by Hotspot assay
Ephrin type-A receptor 7 = Ephrin type-A receptor 7 (Homo sapiens, UniProt Q15375); experiment: Inhibition of human EPHA7 using poly[Glu:Tyr] peptide substrate by Hotspot assay
Ephrin type-A receptor 7, sequence (Q15375 whole entry): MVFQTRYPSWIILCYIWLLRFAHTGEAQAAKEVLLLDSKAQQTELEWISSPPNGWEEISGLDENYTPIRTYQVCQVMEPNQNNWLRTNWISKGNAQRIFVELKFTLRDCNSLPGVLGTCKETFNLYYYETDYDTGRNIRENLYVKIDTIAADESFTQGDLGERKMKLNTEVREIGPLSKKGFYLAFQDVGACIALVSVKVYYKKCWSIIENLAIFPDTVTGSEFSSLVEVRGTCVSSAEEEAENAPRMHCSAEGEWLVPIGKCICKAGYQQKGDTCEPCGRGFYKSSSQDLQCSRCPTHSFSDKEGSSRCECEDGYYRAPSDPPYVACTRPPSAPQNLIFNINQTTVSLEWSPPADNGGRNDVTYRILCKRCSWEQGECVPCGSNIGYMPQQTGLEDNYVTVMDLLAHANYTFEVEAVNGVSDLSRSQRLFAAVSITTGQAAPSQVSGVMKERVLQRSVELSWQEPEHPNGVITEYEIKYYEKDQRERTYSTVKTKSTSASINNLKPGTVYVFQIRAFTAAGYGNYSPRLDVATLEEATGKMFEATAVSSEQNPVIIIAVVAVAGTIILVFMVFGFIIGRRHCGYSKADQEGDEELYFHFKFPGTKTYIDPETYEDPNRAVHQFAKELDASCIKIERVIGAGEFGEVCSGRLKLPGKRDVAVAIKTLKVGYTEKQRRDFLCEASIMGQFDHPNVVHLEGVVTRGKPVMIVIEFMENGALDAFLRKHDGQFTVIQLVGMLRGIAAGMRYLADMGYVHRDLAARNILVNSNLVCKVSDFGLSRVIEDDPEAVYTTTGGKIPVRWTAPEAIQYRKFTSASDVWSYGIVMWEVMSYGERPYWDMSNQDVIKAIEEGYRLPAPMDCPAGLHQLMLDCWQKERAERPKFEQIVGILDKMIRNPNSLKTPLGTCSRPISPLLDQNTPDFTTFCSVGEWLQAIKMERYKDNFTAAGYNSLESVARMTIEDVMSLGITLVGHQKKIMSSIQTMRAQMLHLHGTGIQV

Insulin receptor = Insulin receptor (Homo sapiens, UniProt P06213); experiment: Inhibition of human IR using poly[Glu:Tyr] by Hotspot assay
[21] = target: Proto-oncogene tyrosine-protein kinase Src (Homo sapiens, UniProt P12931); experiment: Inhibition of human Src using poly[Glu:Tyr] by Hotspot assay
[22] = target: Mast/stem cell growth factor receptor Kit (Homo sapiens, UniProt P10721); experiment: Inhibition of human c-Kit using poly[Glu:Tyr] by Hotspot assay
[23] = target: Fibroblast growth factor receptor 4 (Homo sapiens, UniProt P22455); experiment: Inhibition of human FGFR4 using poly[Glu:Tyr] peptide substrate by Hotspot assay
[24] = target: Fibroblast growth factor receptor 3 (Homo sapiens, UniProt P22607); experiment: Inhibition of human FGFR3 using poly[Glu:Tyr] peptide substrate by Hotspot assay
[25] = target: Receptor-type tyrosine-protein kinase FLT3 (Homo sapiens, UniProt P36888)
[26] = target: Cyclin-dependent kinase 2/cyclin E1 (Homo sapiens, UniProt P24941); experiment: Inhibition of human CDK2/Cyclin E using Histone H1 substrate by Hotspot assay; format: protein-complex assay
[27] = target: Tyrosine-protein kinase JAK3 (Homo sapiens, UniProt P52333); experiment: Inhibition of human JAK3 using GEEEEYFELVKKKK peptide substrate by Hotspot assay
[28] = target: Tyrosine-protein kinase JAK2 (Homo sapiens, UniProt O60674); experiment: Inhibition of human JAK2 using poly[Glu:Tyr] by Hotspot assay
[29] = target: Tyrosine-protein kinase Lyn (Homo sapiens, UniProt P07948); experiment: Inhibition of human LYN using poly[Glu:Tyr] by Hotspot assay
[30] = target: Hepatocyte growth factor receptor (Homo sapiens, UniProt P08581); experiment: Inhibition of human c-Met using KKKSPGEYVNIEFG peptide substrate by Hotspot assay
[31] = target: Vascular endothelial growth factor receptor 2 (Homo sapiens, UniProt P35968); experiment: Inhibition of human VEGFR2 using poly[Glu:Tyr] by Hotspot assay
Vascular endothelial growth factor receptor 2, sequence (P35968 whole entry): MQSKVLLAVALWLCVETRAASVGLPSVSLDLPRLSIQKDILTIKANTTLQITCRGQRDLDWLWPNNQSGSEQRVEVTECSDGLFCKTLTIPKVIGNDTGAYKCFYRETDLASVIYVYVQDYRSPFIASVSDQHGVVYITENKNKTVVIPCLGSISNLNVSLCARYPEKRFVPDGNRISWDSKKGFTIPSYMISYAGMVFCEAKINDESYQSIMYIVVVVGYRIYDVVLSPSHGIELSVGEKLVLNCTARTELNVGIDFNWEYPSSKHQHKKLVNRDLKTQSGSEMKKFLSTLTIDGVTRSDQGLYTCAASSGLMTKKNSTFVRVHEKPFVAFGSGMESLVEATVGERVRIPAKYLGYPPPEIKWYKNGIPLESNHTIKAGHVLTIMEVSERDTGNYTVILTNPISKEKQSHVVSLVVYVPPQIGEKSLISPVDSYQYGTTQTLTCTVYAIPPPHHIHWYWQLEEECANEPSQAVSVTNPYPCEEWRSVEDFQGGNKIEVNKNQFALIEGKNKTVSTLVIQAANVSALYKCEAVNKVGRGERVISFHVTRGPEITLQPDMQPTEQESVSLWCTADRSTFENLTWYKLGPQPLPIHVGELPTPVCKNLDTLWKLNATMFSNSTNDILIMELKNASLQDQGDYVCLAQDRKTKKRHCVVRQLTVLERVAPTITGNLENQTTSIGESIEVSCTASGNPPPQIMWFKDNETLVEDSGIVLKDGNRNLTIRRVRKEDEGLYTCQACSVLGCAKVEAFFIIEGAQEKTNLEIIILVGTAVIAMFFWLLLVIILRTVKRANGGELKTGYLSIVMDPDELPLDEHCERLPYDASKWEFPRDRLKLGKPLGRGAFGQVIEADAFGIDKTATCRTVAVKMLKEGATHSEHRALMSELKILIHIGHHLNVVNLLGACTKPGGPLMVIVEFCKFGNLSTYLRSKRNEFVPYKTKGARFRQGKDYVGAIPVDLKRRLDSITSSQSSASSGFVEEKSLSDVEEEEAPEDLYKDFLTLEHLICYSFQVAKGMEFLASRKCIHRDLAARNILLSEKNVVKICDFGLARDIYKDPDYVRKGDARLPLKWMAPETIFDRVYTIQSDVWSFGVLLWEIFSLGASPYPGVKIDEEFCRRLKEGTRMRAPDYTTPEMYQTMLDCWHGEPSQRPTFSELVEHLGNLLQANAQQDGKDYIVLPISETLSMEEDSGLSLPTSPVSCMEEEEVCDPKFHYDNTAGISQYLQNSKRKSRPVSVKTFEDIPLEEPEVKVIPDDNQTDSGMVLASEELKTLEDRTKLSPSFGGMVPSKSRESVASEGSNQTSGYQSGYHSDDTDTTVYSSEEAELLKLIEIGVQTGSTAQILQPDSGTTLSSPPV

Ephrin type-A receptor 3 = Ephrin type-A receptor 3 (Homo sapiens, UniProt P29320); experiment: Inhibition of human EPHA3 using poly[Glu:Tyr] peptide substrate by Hotspot assay
Ephrin type-A receptor 2 = Ephrin type-A receptor 2 (Homo sapiens, UniProt P29317); experiment: Inhibition of human EPHA2 using poly[Glu:Tyr] peptide substrate by Hotspot assay
[32] = target: Serine/threonine-protein kinase B-raf (Homo sapiens, UniProt P15056); experiment: Inhibition of human BRAF using MEK1 (K97R), ATP substrate by Hotspot assay
[33] = target: Platelet-derived growth factor receptor alpha (Homo sapiens, UniProt P16234); experiment: Inhibition of human PDGFRalpha using poly[Glu:Tyr] by Hotspot assay
Platelet-derived growth factor receptor alpha, sequence (P16234 whole entry): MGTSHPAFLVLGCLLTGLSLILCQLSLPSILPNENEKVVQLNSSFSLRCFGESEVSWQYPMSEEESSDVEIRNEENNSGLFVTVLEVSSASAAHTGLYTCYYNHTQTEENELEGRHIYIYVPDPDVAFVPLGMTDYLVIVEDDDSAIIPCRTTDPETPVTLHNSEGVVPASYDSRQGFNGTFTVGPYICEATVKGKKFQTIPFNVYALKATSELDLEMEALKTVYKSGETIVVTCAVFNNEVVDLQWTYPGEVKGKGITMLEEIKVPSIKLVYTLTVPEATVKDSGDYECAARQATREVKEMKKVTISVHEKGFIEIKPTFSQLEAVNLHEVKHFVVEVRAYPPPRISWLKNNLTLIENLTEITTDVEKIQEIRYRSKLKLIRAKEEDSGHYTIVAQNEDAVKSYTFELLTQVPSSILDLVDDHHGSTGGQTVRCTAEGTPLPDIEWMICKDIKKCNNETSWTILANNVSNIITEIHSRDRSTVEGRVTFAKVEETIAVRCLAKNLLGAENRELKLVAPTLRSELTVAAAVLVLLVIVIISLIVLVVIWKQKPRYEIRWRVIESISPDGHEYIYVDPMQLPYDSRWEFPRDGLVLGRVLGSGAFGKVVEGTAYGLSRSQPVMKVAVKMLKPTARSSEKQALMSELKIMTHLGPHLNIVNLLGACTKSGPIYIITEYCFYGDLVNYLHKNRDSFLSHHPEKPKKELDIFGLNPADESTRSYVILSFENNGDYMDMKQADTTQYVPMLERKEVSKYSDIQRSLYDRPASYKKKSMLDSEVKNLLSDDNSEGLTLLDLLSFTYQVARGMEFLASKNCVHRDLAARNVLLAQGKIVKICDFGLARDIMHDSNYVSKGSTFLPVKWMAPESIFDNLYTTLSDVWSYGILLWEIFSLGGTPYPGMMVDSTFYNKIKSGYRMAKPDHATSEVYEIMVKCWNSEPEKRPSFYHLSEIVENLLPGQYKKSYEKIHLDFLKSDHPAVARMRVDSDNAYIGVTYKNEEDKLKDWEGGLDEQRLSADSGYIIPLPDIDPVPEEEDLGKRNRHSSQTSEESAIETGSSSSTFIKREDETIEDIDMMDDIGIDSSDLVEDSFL

[34] = target: Vascular endothelial growth factor receptor 1 (Homo sapiens, UniProt P17948); experiment: Inhibition of human VEGFR1 using poly[Glu:Tyr] by Hotspot assay
Vascular endothelial growth factor receptor 1, sequence (P17948 whole entry): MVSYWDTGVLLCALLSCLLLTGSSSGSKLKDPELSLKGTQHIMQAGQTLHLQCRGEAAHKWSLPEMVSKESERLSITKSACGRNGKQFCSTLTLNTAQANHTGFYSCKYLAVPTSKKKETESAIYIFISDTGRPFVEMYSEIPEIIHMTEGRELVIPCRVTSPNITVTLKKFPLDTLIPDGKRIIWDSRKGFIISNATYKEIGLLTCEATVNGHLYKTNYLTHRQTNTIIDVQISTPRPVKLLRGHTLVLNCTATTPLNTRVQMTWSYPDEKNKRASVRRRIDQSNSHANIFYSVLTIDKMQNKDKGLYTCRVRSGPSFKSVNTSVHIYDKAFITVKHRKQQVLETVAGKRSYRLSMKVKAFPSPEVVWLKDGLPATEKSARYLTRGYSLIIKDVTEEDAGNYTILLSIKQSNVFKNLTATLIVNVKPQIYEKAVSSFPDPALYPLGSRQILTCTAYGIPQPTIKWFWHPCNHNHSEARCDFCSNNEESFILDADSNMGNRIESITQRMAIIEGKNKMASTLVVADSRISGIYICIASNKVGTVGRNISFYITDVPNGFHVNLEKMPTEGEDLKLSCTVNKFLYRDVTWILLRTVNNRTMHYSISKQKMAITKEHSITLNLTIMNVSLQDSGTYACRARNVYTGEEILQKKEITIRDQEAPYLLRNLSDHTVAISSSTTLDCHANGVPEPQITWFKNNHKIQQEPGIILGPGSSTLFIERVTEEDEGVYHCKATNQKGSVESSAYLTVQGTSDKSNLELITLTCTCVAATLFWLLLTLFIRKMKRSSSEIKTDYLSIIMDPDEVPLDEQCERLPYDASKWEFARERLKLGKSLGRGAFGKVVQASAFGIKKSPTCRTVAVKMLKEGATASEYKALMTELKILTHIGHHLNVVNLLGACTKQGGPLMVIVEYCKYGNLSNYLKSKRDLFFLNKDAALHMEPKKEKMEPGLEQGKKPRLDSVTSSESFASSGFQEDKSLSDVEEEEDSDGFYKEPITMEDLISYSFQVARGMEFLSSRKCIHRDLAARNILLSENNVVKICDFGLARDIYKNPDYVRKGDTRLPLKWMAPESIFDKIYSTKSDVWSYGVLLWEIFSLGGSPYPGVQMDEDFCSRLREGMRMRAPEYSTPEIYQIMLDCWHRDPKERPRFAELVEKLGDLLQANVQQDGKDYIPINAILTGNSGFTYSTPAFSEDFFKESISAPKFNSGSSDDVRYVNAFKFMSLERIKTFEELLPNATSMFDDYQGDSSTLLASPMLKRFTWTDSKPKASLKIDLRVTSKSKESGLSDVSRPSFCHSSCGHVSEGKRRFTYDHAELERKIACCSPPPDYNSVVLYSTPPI

Aurora kinase A = Aurora kinase A (Homo sapiens, UniProt O14965); experiment: Inhibition of human Aurora A using H-LRRASLG peptide substrate by Hotspot assay
[35] = target: Fibroblast growth factor receptor 1 (Homo sapiens, UniProt P11362); experiment: Inhibition of human FGFR1 using KKKSPGEYVNIEFG peptide substrate by Hotspot assay

For `Cc1ccc(C(=O)Nc2ccc(CN3CCN(C)CC3)c(C(F)(F)F)c2)cc1C#Cc1cnc(C)n1C`, the IC50 (cells [1]) was 1790 nM, the IC50 (cells [2]) was 69 nM and the IC50 [3] was 362 nM. For the same molecule, the IC50 [4] was 72.6 nM and the IC50 (cells [5]) was 8.5 nM.
For `Cc1ccc(C(=O)Nc2ccc(CN3CCN(C)CC3)c(C(F)(F)F)c2)cc1C#Cc1cnc(C(N)=O)n1C`, the Vd [6] was 9.3 L/kg, the bioavailability [7] was 25.3% and the IC50 (cells [1]) was 787 nM. It also gave an AUC (Rattus norvegicus [8]) of 5445 h/ng/mL, a half-life [9] of 8 h and an IC50 (cells [2]) of 7.6 nM. It also gave a clearance [10] of 15.3 mL/min/kg, an IC50 [3] of 25 nM and a Cmax [11] of 258 ng/mL. For the same molecule, the IC50 [4] was 3.6 nM, the concentration at 6 h [12] was 358 ng/mL and the AUC (Rattus norvegicus [13]) was 4144 h/ng/mL. For the same molecule, the IC50 (cells [5]) was 1.3 nM, the Cmax [14] was 627 ng/mL and the half-life [15] was 7 h.
With `CNC(=O)c1ncc(C#Cc2cc(C(=O)Nc3ccc(CN4CCN(C)CC4)c(C(F)(F)F)c3)ccc2C)n1C` the IC50 (cells [1]) was 1580 nM, the IC50 (cells [2]) was 4 nM and the IC50 [3] was 18 nM. The IC50 [4] was 17.4 nM and the IC50 (cells [5]) was 1.7 nM.
In the case of `Cc1ccc(C(=O)Nc2ccc(CN3CCN(C)CC3)c(C(F)(F)F)c2)cc1C#Cc1cnc(C(=O)NCCO)n1C`, the IC50 (cells [1]) is reported as 1600 nM, the IC50 (cells [2]) is reported as 64 nM and the IC50 [3] is reported as 301 nM. For the same molecule, the IC50 [4] was 55 nM and the IC50 (cells [5]) was 3.9 nM.
With `CNC(=O)c1ncc(C#Cc2cc(C(=O)Nc3ccc(CN4CCN(CCO)CC4)c(C(F)(F)F)c3)ccc2C)n1C` the Vd [6] was 8.2 L/kg, the IC50 [16] was 55.3 nM and the IC50 [17] was 1.5 nM. The IC50 [18] was 7.2 nM, the IC50 [19] was 26 nM and the Activity [20] was 130%. It also gave an IC50 (Angiopoietin-1 receptor) of 2.2 nM, an IC50 (Ephrin type-A receptor 7) of 4.2 nM and a bioavailability [7] of 45%. For the same molecule, the IC50 (cells [1]) was 3090 nM, the IC50 (Insulin receptor) was greater than 3000 nM and the IC50 [21] was 4 nM. The AUC (Rattus norvegicus [8]) was 970 h/ng/mL, the IC50 [22] was greater than 3000 nM and the half-life [9] was 10 h. For the same molecule, the IC50 (cells [2]) was 8.4 nM, the IC50 [23] was 34 nM and the clearance [10] was 17.2 mL/min/kg. The IC50 [24] was 10.5 nM, the IC50 [25] was 2 nM and the Cmax [11] was 344 ng/mL. For the same molecule, the IC50 [26] was 6.4 nM, the concentration at 6 h [12] was 1150 ng/mL and the IC50 [27] was 57.5 nM. For the same molecule, the IC50 [28] was 536 nM, the AUC (Rattus norvegicus [13]) was 6586 h/ng/mL and the IC50 [29] was less than 0.15 nM. For the same molecule, the IC50 (cells [5]) was 1.3 nM, the IC50 [30] was greater than 3000 nM and the IC50 [31] was 2.3 nM. It also gave an IC50 (Ephrin type-A receptor 3) of 1.2 nM, an IC50 (Ephrin type-A receptor 2) of 0.6 nM and a Cmax [14] of 200 ng/mL. For the same molecule, the IC50 [32] was 20 nM, the IC50 [33] was 1.3 nM and the IC50 [34] was 5.2 nM. For the same molecule, the IC50 (Aurora kinase A) was greater than 3000 nM, the IC50 [35] was 1.8 nM and the half-life [15] was 5.6 h.
With `COCCN1CCN(Cc2ccc(NC(=O)c3ccc(C)c(C#Cc4cnc(C(N)=O)n4C)c3)cc2C(F)(F)F)CC1` the IC50 (cells [1]) was 2380 nM, the IC50 (cells [2]) was 10.8 nM and the IC50 [3] was 140 nM. For the same molecule, the IC50 [4] was 4.8 nM and the IC50 (cells [5]) was 0.65 nM.
Molecule `Cc1ccc(C(=O)Nc2ccc(CN3CCN(CC(=O)O)CC3)c(C(F)(F)F)c2)cc1C#Cc1cnc(C(N)=O)n1C` has an IC50 (cells [1]) of 10000 nM, an IC50 (cells [2]) of 64 nM and an IC50 [3] of 106 nM. For the same molecule, the IC50 [4] was 4.3 nM and the IC50 (cells [5]) was 7.6 nM.
With `Cc1ccc(C(=O)Nc2ccc(CN3CCN(C)CC3)c(C(F)(F)F)c2)cc1C#Cc1cnc(N)s1` the IC50 (cells [1]) was 1270 nM, the IC50 (cells [2]) was 17.5 nM and the IC50 [3] was 139 nM. The IC50 [4] was 29 nM and the IC50 (cells [5]) was 2.8 nM.
For `CC(=O)Nc1ncc(C#Cc2cc(C(=O)Nc3ccc(CN4CCN(C)CC4)c(C(F)(F)F)c3)ccc2C)s1`, the IC50 (cells [1]) was 97 nM, the IC50 (cells [2]) was 5.5 nM and the IC50 [3] was 27 nM. It also gave an IC50 [4] of 12 nM and an IC50 (cells [5]) of 0.67 nM.
